Measurements as given in patent US20090286745A1, “INHIBITION OF ALPHA-SYNUCLEIN AGGREGATION” (Zapaloid Limited, priority 2006, published 2009).
“Also recorded” adds a separate entry of the source.

target: α-synuclein (Homo sapiens, UniProt P37840); test: Kinetic thioflavin T aggregation assay of ASYN in TBS; assay type: biochemical; conditions: Table 4 interactomer peptides, 50 μM ASYN, 100 μM inhibitor, 37 C, 48 hours, sigmoidal fit
Procedure: (§1) Kinetic ThT assays were performed by adding ThT directly to the sample at time=0. A 2.5 mM ThT stock solution was made up in the buffer that was used in the aggregation experiment, filtered through a […] Millex GV filter and diluted to 62.5 μM by adding 5 μl to final sample volume of 200 μl in a 96-well polypropylene plate. The increase in fluorescence over time as a result of amyloid formation was measured in a Biotek Synergy HT plate reader at 37° C. with shaking. Cut off filters were used for exitation at 440/30 nm and emission at 485/20 nm. Readings were every 10 minutes with shaking for 500 seconds before each reading.
Aggregation assays were carried out with 50 μM ASYN and 100 μM inhibitor with 50 mM tris and 150 mM NaCl and 20 μM Thioflavin T. The reaction volume was 200 μL. Each reaction was set up in a 96 well polypropylene plate with ASYN only and buffer only controls. The reactions were incubated at 37 C with shaking for 48 hours and aggregation was monitored by reading thioflavin T fluorescence as described above.
The aggregation inhibition properties of ZP-0154 and ZP-0155 were tested in kinetic ThT assays in TBS as described above.
All peptides were tested for inhibition of ASYN aggregation in TBS as described above and the kinetic traces were fit using Zyentiafit software which fits the data to a Sigmoidal function f(x)=k+A/(1+exp(−b(t−t0))) from which the lag time, rate of aggregation and total change in ThT fluorescence may be calculated.
A kinetic thioflavin T assay to measure aggregation was set up with 50 uM α-synuclein in TBS and a molar ratio of 1:2 of α-synuclein:inhibitor). Reactions were incubated for 48 hours at 37° C. with shaking and thioflavin T fluorescence was measured every 10 minutes. The kinetic traces were fit using Zyentiafit software which fits the data to a Sigmoidal function f(x)=k+A/(1+exp(−b(t−t0))) from which the lag time, rate of aggregation and total change in ThT fluorescence may be calculated.

| Substance | % decrease in ThT fluorescence | % decrease in rate of aggregation | % increase in Lag phase |
| --- | --- | --- | --- |
| Ac-hhvlva-NH2 [ZP-0160] | 8.8% | 10.5% | 36.5% |
| Ac-qypvli-NH2 [ZP-0206] | 3.3% | 8.4% | 25.9% |
| Ac-hhtevy-NH2 [ZP-0193] | 8.7% | −15.8% | 31.4% |
| Ac-hhvivt-NH2 [ZP-0170] | 24.5% | 29.3% | 29.4% |
| NH3-qykvli-NH2 [ZP-0222] | 42.3% | 34.3% | 7.7% |
| Ac-hhvkva-NH2 [ZP-0161] | −5.9% | 2.3% | 19.7% |
| Ac-ekysvli-NH2 [ZP-0213] | 25.6% | 12.9% | 29.4% |
| Ac-rysvli-NH2 [ZP-0212] | 51.1% | 44.9% | −14.4% |
| Ac-hhttvy-NH2 [ZP-0194] | 11.6% | 7.7% | 38.8% |
| Ac-hhtlvv-NH2 [ZP-0186] | 30.7% | 29.7% | 16.1% |
| NH3-qytvli-NH2 [ZP-0221] | 24.7% | 22.8% | −22.4% |
| Ac-hhveva-NH2 [ZP-0162] | 6.3% | 6.6% | 33.4% |
| Ac-hhtvva-NH2 [ZP-0180] | 19.8% | 18.4% | 30.3% |
| Ac-hhtlva-NH2 [ZP-0181] | 22.8% | −1.2% | 29.4% |
| Ac-hhvivw-NH2 [ZP-0172] | −1.7% | 6.9% | 28.1% |
| Ac-hhtivv-NH2 [ZP-0175] | 21.9% | 16.8% | 89.7% |

| Substance | % decrease in ThT fluorescence | % decrease in rate of aggregation | % increase in Lag phase |
| --- | --- | --- | --- |
| Ac-hhvivp-NH2 [ZP-0168] | −8.6% | −5.4% | 29.8% |
| Ac-drysvli-NH2 [ZP-0214] | 20.4% | 4.8% | −12.6% |
| NH3-qysvli-NH2 [ZP-0215] | 27.6% | 17.5% | 3.1% |
| Ac-qysvpi-NH2 [ZP-0204] | 1.4% | −5.6% | 23.6% |
| NH3-qysvlt-NH2 [ZP-0230] | 10.9% | 15.9% | 32.4% |
| Ac-hhvivy-NH2 [ZP-0171] | 13.9% | 13.2% | 43.6% |
| NH3-pysvli-NH2 [ZP-0228] | 40.8% | 46.2% | 38.2% |
| Ac-hhviva-NH2 [ZP-0158] | 15.1% | 18.4% | 32.5% |
| Ac-hpviva-NH2 [ZP-0164] | 3.7% | −2.3% | 43.0% |
| Ac-qykvli-NH2 [ZP-0202] | 53.5% | 54.5% | −28.8% |
| Ac-hhvivv-NH2 [ZP-0169] | −0.5% | −13.3% | 26.1% |
| NH3-qysvlv-NH2 [ZP-0229] | 17.8% | 24.3% | 33.5% |
| Ac-hhvvva-NH2 [ZP-0159] | 19.8% | 18.6% | 36.6% |
| Ac-hhtivk-NH2 [ZP-0179] | 0.6% | −0.6% | 30.4% |
| Ac-qyspli-NH2 [ZP-0205] | 16.6% | −11.9% | 30.6% |
| Ac-qpsvli-NH2 [ZP-0207] | 5.5% | 3.6% | 29.7% |

same assay, conditions: Table 5 structure stabilising peptides, 50 uM α-synuclein, 1:2 α-synuclein:inhibitor, 48 hours, 37° C., relative to α-synuclein only

| Substance | % decrease in ThT fluorescence | % decrease in rate of aggregation | % increase in Lag phase |
| --- | --- | --- | --- |
| Ac-rdr-NH2 [ZP-0240] | 18.5% | −0.6% | 23.4% |
| Ac-rgdgd-NH2 [ZP-0247] | 12.2% | 6.7% | 10.7% |
| Ac-egkgegk-NH2 [ZP-0241] | 6.1% | 10.9% | 16.6% |
| Ac-kgegk-NH2 [ZP-0231] | 4.3% | 2.7% | 11.2% |

same assay, conditions: structure stabilising peptides, 48 hours

| Substance | endpoint thioflavin T fluorescence (in words) |
| --- | --- |
| Ac-rdr-NH2 [ZP-0240] | significant decrease |

same assay, conditions: timeframe of the assay 48 h, 50 μM ASYN, 100 μM inhibitor

| Substance | increase in ThT signal compared to ASYN only |
| --- | --- |
| NMP-NMP-NMP-kvfgtaa-NH2 [ZP-0155] | No significant increase |
| NMP-NMP-NMP-NMP-kvfgtaa-NH2 [ZP-0154] | No significant increase |

target: T1, ASYN (Homo sapiens, UniProt P37840); test: Kinetic ThT aggregation assay in 25 mM Tris-Cl pH 7.4 with 100 mg/ml PEG 3350; assay type: biochemical; conditions: Tris-Cl pH 7.4; 48 hours; average over the named inhibitors
Procedure: as §1
For compounds ZP-0089 to ZP-0094, a kinetic ThT experiment was performed in 25 mM Tris-Cl at 37° C. to test the inhibition properties of ZP-0089 to ZP-0094 in Tris-Cl pH 7.4. Each 200 μl sample on the 96 well-plate contained 50 μM ASYN, 100 μM inhibitor and 100 mg/ml PEG along with buffer only and ASYN only controls. Samples were measured in triplicate. ThT fluorescence over time was monitored for 48 hours.

| Substance | decrease in the endpoint ThT reading |
| --- | --- |
| Ac-sgvylvg-COOH [ZP-0091] | 18±2% |
| NH2-sgvylvg-NH2 [ZP-0094] | 18±2% |
| NH2-sgvylvg-COOH [ZP-0092] | 18±2% |

same assay, conditions: both buffer conditions (Tris-Cl pH 7.4 and PBS); 50 μM ASYN, 100 μM inhibitor

| Substance | inhibition compared to ASYN alone |
| --- | --- |
| L-DOPA-sgvylvg-NH2 [ZP-0089] | > 60% |
| L-DOPA-gpvntvq-NH2 [ZP-0090] | > 30% |

same assay, conditions: endpoint; Tris-Cl pH 7.4 at 37° C. with 100 mg/ml PEG 3350; 50 μM ASYN, 100 μM inhibitor

| Substance | ThT signal compared to ASYN (FIG. 11) |
| --- | --- |
| L-DOPA-sgvylvg-NH2 [ZP-0089] | significantly decreased |
| L-DOPA-gpvntvq-NH2 [ZP-0090] | significantly decreased |

target: T1, ASYN; test: Kinetic ThT aggregation assay in PBS pH 7.4; assay type: biochemical; conditions: FIG. 13; PBS; asyn:inhibitor 1:2
Procedure: The molar ratio of asyn:inhibitor is 1:2. For both, ASYN aggregation inhibition is observed as an increased lag time along with decreased endpoint ThT fluorescence.
as §1
For compounds ZP-0089 to ZP-0094, a kinetic experiment was performed to test the inhibition properties in PBS pH 7.4 as described above. Samples were assayed in triplicate and each sample contained 50 μl of 200 μM ASYN and 50 μl of 400 μM inhibitor was added to 100 μl PBS in a well and mixed to yield a 200 μl sample volume containing 50 μM ASYN and 100 μM inhibitor. Control wells contained either buffer only or ASYN only.

| Substance | endpoint ThT fluorescence | lag phase / lag time | rate of amyloid formation |
| --- | --- | --- | --- |
| L-DOPA-sgvylvg-NH2 [ZP-0089] | decreased | large increase; also recorded: increased | decreased |
| L-DOPA-gpvntvq-NH2 [ZP-0090] | decreased | increased | decreased |

same assay, conditions: endpoint; legend prints Tris-Cl pH 7.4 at 37° C. with 100 mg/ml PEG 3350

| Substance | ThT signal compared to ASYN (FIG. 12) |
| --- | --- |
| L-DOPA-sgvylvg-NH2 [ZP-0089] | significantly decreased |
| L-DOPA-gpvntvq-NH2 [ZP-0090] | significantly decreased |
